Data on 13 compounds can be found in paper PMC11820905, “Rational Design, Synthesis, and In Vitro Activity of Heterocyclic Gamma-Butyrobetaines as Potential Carnitine Acetyltransferase Inhibitors” (Molecules, 2025).

The target of assay [1] is T1, Carnitine acetyltransferase isolated from pigeon breast muscle (Columba livia, UniProt P52826).
T1 construct: CAT (isolated from pigeon breast muscle, ammonium sulfate suspension, CAS Number: 9029-90-7); purchased Sigma-Aldrich; host or cells: pigeon breast muscle (tissue-purified enzyme)
T1 sequence (P52826 31-627): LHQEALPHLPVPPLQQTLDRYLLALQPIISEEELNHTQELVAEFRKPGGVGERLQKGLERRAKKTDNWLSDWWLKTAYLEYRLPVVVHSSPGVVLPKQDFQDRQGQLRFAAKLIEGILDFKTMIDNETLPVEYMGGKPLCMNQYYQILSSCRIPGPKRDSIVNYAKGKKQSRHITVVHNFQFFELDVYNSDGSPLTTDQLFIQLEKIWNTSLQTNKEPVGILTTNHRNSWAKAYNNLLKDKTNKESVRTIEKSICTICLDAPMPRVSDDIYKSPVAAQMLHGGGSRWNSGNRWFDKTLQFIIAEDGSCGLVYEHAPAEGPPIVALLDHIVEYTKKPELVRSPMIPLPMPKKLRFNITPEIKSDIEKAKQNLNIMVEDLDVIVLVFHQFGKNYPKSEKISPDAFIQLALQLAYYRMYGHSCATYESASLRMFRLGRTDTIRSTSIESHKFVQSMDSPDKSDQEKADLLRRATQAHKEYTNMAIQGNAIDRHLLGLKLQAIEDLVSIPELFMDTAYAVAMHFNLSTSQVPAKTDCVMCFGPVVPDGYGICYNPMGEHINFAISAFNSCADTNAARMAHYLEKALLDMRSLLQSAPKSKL
Kind of assay: CAT inhibition, IC50 determination (DTNB/Ellman reaction, absorbance at 405 nm). Format: biochemical. The following applies: c(L-carnitine) = 50.56 μM; 5 min preincubation at 37 °C; eight inhibitor concentrations, triplicate over three days. An excerpt:
To assess the impact of the synthesized compounds on CAT activity and establish the structure-activity relationship, we initially determined the concentration needed to reduce the enzyme activity by 50% (IC50) under the same reaction conditions. We slightly modified a method proposed by Marquis and Fritz, which allows for the quantification of the consumed L-carnitine by observing its conversion to acetyl L-carnitine using a reaction with 5,5′-dithiobis-(2-nitrobenzoic acid) (DTNB or Ellman’s reagent) and CoA to produce 2-nitro-5-thiobenzoic acid (TNB). We opted to determine the IC50 at a substrate concentration that yields a [S]/Km ratio of about 0.01 (c(L-carnitine) = 50.56 μM and Km = 3.0 mM) to ensure that the IC50 is virtually independent of [S]. We also used a kinetic approach, measuring the reaction rate over a time interval Δt, during which the dependence is linear (approximately 10–15% substrate conversion). The readings were taken within the first minute after the reaction began, and the degree of inhibition was determined as described in Section 3.3.1. The IC50 values for each compound were obtained by analyzing the percentage inhibition at eight different inhibitor concentrations, with each measurement conducted in triplicate over three consecutive days. The average values of the IC50 obtained are outlined in Figure 4.
(§1) Carnitine acetyltransferase isolated from pigeon breast muscle, ammonium sulfate suspension (CAS Number: 9029-90-7), with activity 71 U/mg protein (1U converts 1 μmol L-carnitine and 1 μmol AcCoA in Acetylcarnitine and free CoA in 1 min) was diluted with phosphate buffer (0.5 M, pH = 7.6) to obtain stock solution with concentration 24 U/mL. Ellman reagent was freshly prepared just before use by dissolving 25 mg DTNB in 5 mL 1 mM solution of Na2EDTA in phosphate buffer (0.5 M, pH = 7.6), the final concentration of DTNB in this solution being 12.8 mM. AcCoA, L-carnitine, and each of the tested compounds were dissolved in distilled water in order to obtain desired stock solutions with concentration c (AcCoA) = 348.0 μM and c (L-carnitine) = 303.4 μM (for IC50 determination). Tris-buffer solution was prepared by dissolving Tris. HCl in distilled water and pH was adjusted with NaOH to pH = 7.6, the final concentration of the solution being 1 M. The final volume of the reaction mixture was 300 μL, which included 50 μL of each stock solution of CAT, AcCoA, L-carnitine, DTNB, Tris-buffer, and test compound. In control probes, 50 μL distilled water was added instead of test compound. A mixture of CAT, AcCoA, DTNB, Tris-buffer, and test compounds were incubated for 5 min at 37 °C. The reaction was initiated by adding L-carnitine, and the reaction rate was monitored by measuring the absorbance at 405 nm.
Inhibition activity was assessed by calculating the reaction rate during the initial minute, within the linear range of A/t, utilizing the following formula:%Inh = 100 × ((ΔA/Δt)control − (ΔA/Δt) Inh)/((ΔA/Δt) control)
To obtain preliminary data for the IC50 values, we initially screened each compound at a final concentration of 5 mM. […] The half-maximal inhibitory concentration (IC50) was determined by plotting the response (A) against the concentration (c) of the inhibitor. All analyses were performed in triplicate over three consecutive days, and the corresponding IC50 values were averaged.

Another assay has as its target CAT. Also noted: method as in PMID 19912061. The settings on record: comparison value for the established drug; no kinetic study of it described here; no reference printed at the place (cf. ref 44); cited from earlier work.
Assay [2] has as its target T1, Carnitine acetyltransferase isolated from pigeon breast muscle. Kind of assay: CAT enzyme kinetics, mechanism of inhibition and Ki. The format is biochemical. The protocol: Substrate concentrations were selected in the range of 0.2 to five times the Km value (Km = 0.3 mM) to facilitate effective inhibition detection at elevated levels while ensuring sufficient substrate availability for the reaction at increased inhibitor concentrations. […] The experiments enabled identification of the inhibition mechanism alongside calculations of Km, Vmax, and Ki. We utilized SigmaPlot version 12.5 (Systat Software Inc. San Jose, CA, USA), which incorporates modules for regression analysis and various inhibition models. The numerical results are summarized in Table 3, while the corresponding Lineweaver –Burk and Michaelis–Menten kinetic plots are available in the Supplementary Materials.
as §1, with “HCl in distilled water and pH was adjusted with NaOH to pH = 7.6, the final concentration of the solution being 1 M. The final volume of the reaction mixture was 300 μL, which included 50 μL of each stock solution of CAT, AcCoA, L-carnitine, DTNB, Tris-buffer, and test compound. In control probes, 50 μL distilled water was added instead of test compound. A mixture of CAT, AcCoA, DTNB, Tris-buffer, and test compounds were incubated for 5 min at 37 °C.” left out
The absorbance at 405 nm was measured every 6 s between the 30th second and the 3rd minute for all probes (in the linear range). The initial velocity (v0) was determined as the intercept of the velocity (v) versus time (t) graph. […]

On to `CCOC(=O)CCC[N+]1(C)CCCCC1` [Compound 2-ester, 1-(4-ethoxy-4-oxobutyl)-1-methylpiperidin-1-ium bromide], for which, in assay [1], inhibition was half-maximal at 22.8 ± 1.8 mM (IC50).

With `C[N+]1(CCCC(=O)[O-])CCCC1` [Pyrr-GBB, 4-(1-methylpyrrolidin-1-ium-1-yl)butanoate], half-maximal inhibition in assay [1] (IC50) was put at 14.1 ± 1.91 mM. This IC50 lies about 1.6-fold lower than the previous one.

For `CCOC(=O)CCC[N+](C)(C)CC` [MeGBB-ester, 4-ethoxy-N-ethyl-N,N-dimethyl-4-oxobutan-1-aminium bromide, reference compound], in assay [1], the IC50 (as a rule, the concentration at which inhibition is half-maximal) was found to be 21.6 ± 1.4 mM. This IC50 lies about 1.5-fold higher than the previous one.

On to `C[N+]1(CCCC(=O)[O-])CCOCC1` [Morph-GBB, 4-(4-methylmorpholino-4-ium)butanoate], for which half-maximal inhibition in assay [1] (IC50) required 23.7 ± 2.2 mM.

In assay [1], `C[N+]1(CCCC(=O)[O-])CCCCC1` [Pip-GBB, 4-(1-methylpiperidin-1-ium-1-yl)butanoate] came in with an IC50 of 5.78 ± 1.2 mM.

Take `C[N+](C)(C)NCCC(=O)[O-]` [Meldonium, reference compound]: the IC50 in assay [1] was 11.4 mM. In addition, on CAT, the inhibition constant Ki (usually a measure of affinity in units of concentration, obtained from inhibition or displacement) was 1.63 mM.

Compound `O=C([O-])CCC[n+]1ccccc1` [Pyr-GBB, 4-(pyridin-1-ium-1-yl)butanoate] yielded an IC50 in assay [1] of 43.6 ± 4.2 mM.

`O=C([O-])CCC[n+]1ccc2ccccc2c1` [i-qui-GBB, 4-(isoquinolin-2-ium-2-yl)butanoate] returned an IC50 in assay [1] of 2.24 ± 0.21 mM. In addition, the “Type of inhibition of CAT” value in assay [2] (best fit: highest R^2, lowest AIC) is “competitive inhibitor”. In assay [2] (competitive model, nonlinear regression (SigmaPlot), inhibitor 1.88 mM and 3.75 mM), this compound gave a Ki of 3.5 mM. For the same compound, the “Inhibition of CAT reaction rate versus blank samples” value in assay [2] (inhibitor concentration 0.94 mM) is recorded as “lack of inhibition”.

Regarding `Cn1cc[n+](CCCC(=O)[O-])c1` [Mim-GBB, 4-(1-methyl-1H-imidazol-3-ium-3-yl)butanoate], it took 14 ± 0.9 mM to reach half-maximal inhibition in assay [1] (IC50).

Take `CN(C)c1cc[n+](CCCC(=O)[O-])cc1` [DMAP-GBB, 4-(4-(dimethylamino)pyridin-1-ium-1-yl)butanoate]: in assay [1], the IC50 is 10.4 ± 1.5 mM.

On to `CCOC(=O)CCC[N+]1(C)CCCC1` [Compound 1-ester, 1-(4-ethoxy-4-oxobutyl)-1-methylpyrrolidin-1-ium bromide], for which, in assay [1], the IC50 was determined as 28.5 ± 0.6 mM.

`CC[N+](C)(C)CCCC(=O)[O-]` [MeGBB, 4-(ethyldimethylammonio)butanoate, reference compound]: the IC50 in assay [1] was 9.32 ± 0.47 mM.

As to `CCOC(=O)CCC[N+]1(C)CCOCC1` [Compound 3-ester, 4-(4-ethoxy-4-oxobutyl)-4-methylmorpholin-4-ium bromide], in assay [1], the IC50 came out at 29.9 ± 1.5 mM.
